The results in this text go back to patent US12410141B2, “Anti-cancer spirocyclic-guanidine compounds and uses thereof” (The Johns Hopkins University, priority 2020, dated 2025).

The target in one series is T1, 42 kDa RPN13 (Homo sapiens, UniProt Q16186).
T1 construct: endogenous in cells; host or cells: ES2 cell lysate (clarified, in MPER buffer)
The series can be described thus: RA190B competitive labeling assay in ES2 cell lysate. As to conditions: ES2 cell lysate pre-incubated 45 min at 4° C. (bortezomib or Up compounds 5 μM), then RA190B 20 μM. The series is classed as binding. As to the method:
(§1) Clarified cell lysate (40 ug/sample) in MPER buffer was pretreated with streptavidin-coated magnetic beads for 45 min at 4° C. to deplete non-specific biotinylated proteins in the cell lysate. […] Next, the samples were mixed with Laemmli sample buffer (BioRad) and boiled for 5 min. The proteins were separated using a 4-15% Bio-Rad Mini-PROTEAN SDS-PAGE gel (1 hr at 100 V), and transferred to PVDF membrane overnight at 4° C. (24 V). The membrane was blocked with 5% BSA in PBST for 1 hr at RT and washed for 20 minutes (3× with PBST). Then the membrane was probed with HRP-streptavidin (1:10,000 in PBST) for 1 hr at RT, washed for 30 min (3× with PBST), and developed using HyGLO chemiluminescent detection reagent (Denville) for biotin detection.
ES2 cell lysates were incubated with 20 μM RA190B for 45 min at 4° C., and then separated by SDS-PAGE, transferred to a PVDF membrane.

The test system of another series is HCC1806. Put plainly: MTT cytotoxicity assay, HCC1806. The series is classed as cell-based. As to conditions: HCC1806, breast, 72 hr, read-out: IC50, cell killing. As to the method:
(§2) All cell lines were obtained from the American Type Culture Collection (ATCC) and cultured in the specified medium supplemented with 10% fetal bovine serum, 100 IU/mL penicillin, and 100 μg/mL streptomycin at 37° C. in a humidified 5% CO2/95% air incubator. To assess drug cytotoxicity cells were seeded at 2,500 cells/well (10,000 cells/well for MM lines and primary cells) in 100 μL medium in 96-well plate. […]
(§3) It was examined whether the RPN13 inhibitor, RA475, was cytotoxic for cancer cell lines using the MTT assay.
A general note: Tetrazolium assays rely on reduction of a dye to a coloured formazan, in cell work by metabolically active cells.

The subject of another series is TSH1. The series can be described thus: MTT cytotoxicity assay, TSH1. The series is classed as cell-based. Particulars: TSH1, thyroid, 72 hr, read-out: IC50, cell killing. The protocol: as §2, §3
The test system of another series is MCF7. Put plainly: MTT cytotoxicity assay, MCF7. The series is classed as cell-based. Particulars: MCF7, breast, 72 hr, read-out: IC50, cell killing. The protocol: as §2, §3
For the next series, the system named is PACS. Put plainly: MTT cytotoxicity assay, PACS. The series is classed as cell-based. As to conditions: ovarian (mouse), 72 hr, read-out: IC50, cell killing. The protocol: as §2, §3
The next series relates to PEO23. Put plainly: MTT cytotoxicity assay, PEO23. As to conditions: PEO23, ovarian, 72 hr, read-out: IC50, cell killing. The series is classed as cell-based. As to the method: as §2, §3
Another series concerns SUM149. Put plainly: MTT cytotoxicity assay, SUM149. The series is classed as cell-based. Particulars: SUM149, breast, 72 hr, read-out: IC50, cell killing. As to the method: as §2, §3
The test system of the next series is MDA-MB-468. The series can be described thus: MTT cytotoxicity assay, MDA-MB-468. The series is classed as cell-based. As to conditions: MDA-MB-468, breast, 72 hr, read-out: IC50, cell killing. As to the method:
as §2, §3

A further series relates to CD-1 mice. The series can be described thus: Single-dose tolerability in CD-1 mice. The series is classed as in vivo, mouse. The protocol:
All animal procedures were performed according to protocols approved by the Johns Hopkins University Animal Care and Use Committee, and in accordance with the AAALAC recommendations for the proper use and care of laboratory animals (protocol MO15M375, renewed as MO18M129). Four to six week old female CD-1 mice were purchased from Jackson Laboratories (ME, USA). Isoflurane anesthesia was used during imaging. The health conditions and/or criteria under which early euthanasia or withdrawal of an animal from the study was implemented included, but are not limited to, general signs of distress such as hunched posture, lethargy, anorexia, dehydration, rough hair coat and/or those that are directly related to the experimental procedures e.g. loss of weight >10%, lethargy, restricted movement of limbs, distended abdomen. Animals in distress were euthanized by carbon dioxide asphyxiation, and cervical dislocation was used to ensure death. This is an acceptable form of euthanasia for mice and in compliance with the recommendations of the Panel on Euthanasia of the American Veterinary Medical Association.
RA475 powder was directly dissolved in 25% β-hydroxy propyl cyclodextrin as a clear solution and administered at increasing single doses to CD-1 mice (n=3) via intraperitoneal injection.

The next series deals with cancer cells. The series can be described thus: MTT cytotoxicity assay, cancer cell lines overall. The series is classed as cell-based. Particulars: all solid cancer-derived cell lines tested (Table 1). The protocol:
All cell lines were obtained from the American Type Culture Collection (ATCC) and cultured in the specified medium supplemented with 10% fetal bovine serum, 100 IU/mL penicillin, and 100 μg/mL streptomycin at 37° C. in a humidified 5% CO2/95% air incubator. To assess drug cytotoxicity cells were seeded at 2,500 cells/well (10,000 cells/well for MM lines and primary cells) in 100 μL medium in 96-well plate. The cells were treated with compounds for 48 h, and cells were incubated according to the manufacturer's protocol with the Thiazolyl Blue Tetrazolium Bromide (Sigma, M2128) and A570 measured using a Benchmark Plus microplate spectrophotometer (BIO-RAD).
as §3

For a further series, the system named is 4T1. The series can be described thus: MTT cytotoxicity assay, 4T1. The series is classed as cell-based. As to conditions: 4T1, breast (TNBC), 72 hr, read-out: IC50, cell killing. The protocol:
as §2, §3

Series [1] concerns the target T2, 42 kDa cellular protein, consistent with RPN13 (Homo sapiens, UniProt Q16186).
T2 construct: endogenous in cells; host or cells: SKOV3 or ES2 cell lysates, pre-cleared with streptavidin-coated beads
The series can be described thus: Up284B competitive labeling assay in SKOV3 or ES2 cell lysates. The series is classed as binding. Particulars: pre-cleared SKOV3 or ES2 lysates, 45 min at 4° C., then 5 μM Up284B. The protocol: as §1
Briefly SKOV3 or ES2 cell lysates were first pre-cleared with streptavidin-coated beads to deplete endogenous biotinylated proteins. The pre-cleared lysates were then divided into equal aliquots. […] The lysates were then boiled in gel sample buffer, separated by SDS-PAGE, and transferred to a PVDF membrane.

Another series relates to HCT116. Put plainly: MTT cytotoxicity assay, HCT116. The series is classed as cell-based. As to conditions: HCT116, colon, 72 hr, read-out: IC50, cell killing. As to the method:
as §2, §3

The test system of the next series is Br23C. The series can be described thus: MTT cytotoxicity assay, Br23C. Particulars: glioblastoma multiforme, 72 hr, read-out: IC50, cell killing. The series is classed as cell-based. As to the method:
as §2, §3

The test system of series [2] is human foreskin fibroblasts (HFF). Put plainly: MTT cytotoxicity assay, human foreskin fibroblasts. The series is classed as cell-based. Particulars: non-transformed human foreskin fibroblasts, 72 hr, highest concentration tested 2.5 μM, read-out: IC50, cell killing. The protocol: as §2, §3
Series [3] can be described thus: Solubility compared with RA190. The series is classed as physicochemical. Particulars: compared with prototypic RPN13 inhibitor RA190.
In the next series the test system is ES2. Put plainly: MTT cytotoxicity assay, ES2. The series is classed as cell-based. Particulars: ES2, ovarian, 72 hr, read-out: IC50, cell killing. As to the method: as §2, §3
Another series has as its system TC1. The series can be described thus: MTT cytotoxicity assay, TC1. The series is classed as cell-based. As to conditions: TC1, cervical, 72 hr, read-out: IC50, cell killing. The protocol: as §2, §3

pIC50: −log10 of the molar value.

T2 sequence (Q16186 whole entry): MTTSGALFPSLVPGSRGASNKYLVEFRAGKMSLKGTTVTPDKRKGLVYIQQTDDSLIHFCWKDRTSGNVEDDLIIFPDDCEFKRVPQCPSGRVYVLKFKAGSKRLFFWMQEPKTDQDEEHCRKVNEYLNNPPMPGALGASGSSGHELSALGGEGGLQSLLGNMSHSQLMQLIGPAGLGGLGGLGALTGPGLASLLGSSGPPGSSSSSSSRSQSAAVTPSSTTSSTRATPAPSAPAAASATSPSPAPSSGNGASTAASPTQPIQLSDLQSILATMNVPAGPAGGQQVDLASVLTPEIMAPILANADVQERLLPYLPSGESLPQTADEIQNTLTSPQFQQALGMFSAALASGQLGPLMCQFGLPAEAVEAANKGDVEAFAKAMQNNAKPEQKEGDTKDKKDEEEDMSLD
T1 sequence (Q16186 whole entry): as above

With `N#Cc1ccc(/C=C2/C(=O)/C(=C/c3ccc(C#N)cc3)C23CCNCC3)cc1` [Up284, reference compound], on 42 kDa RPN13, the “competition with binding of RA190B to the 42 kDa RPN13” value was “competed”.

For orientation: pIC50 means −log10 of the IC50, conventionally taken in molar units. One may read the NOAEL as the highest dose or exposure tested at which no adverse effect was seen. For the compound `Cl.Cl.N#Cc1ccc(/C=C2/C(=O)/C(=C/c3ccc(C#N)cc3)C23CCN(C(=N)N)CC3)cc1` [RA475], the pIC50 in the series on HCC1806 was 6.95; with TSH1, 6.94; in the series with MCF7, 6.13; with PACS, 6.24; with PEO23 it was 6.46; with SUM149 it was 7.00. Further, the pIC50 is 6.53 in the series on MDA-MB-468; 6.58 in the series with 4T1; 6.37 in the series with HCT116; 6.12 in the series with Br23C; less than 5.60 in series [2]; 6.80 in the series with ES2. Moreover, the pIC50 in the series with TC1 is 6.66. For the same compound, the NOAEL in the series on CD-1 mice (single dose, intraperitoneal, 80 mg/Kg highest dose level tested) is reported as greater than 80 mg/kg. Further, the “adverse events” value with CD-1 mice (single i.p. doses at or below 80 mg/Kg) is reported as “No evidence of adverse events, including weight loss”. Besides, the “IC50 across cancer cell lines” value in the series on cancer cells is “Sub micromolar”. Further, in series [1], the “competition with binding of Up284B probe to RPN13” value was “dose-dependently competed”. For the same compound, the “solubility relative to RA190” value in [3] is “better solubility”.
